System: Dogs
Assay: Effect on dog intraocular pressure, applanation pneumatonometry
Type: in vivo
Conditions: for time (Hr) of IOP max % decrease / time (Hr) of IOP max mmHg / IOP max mmHg / IOP max % decrease: 25 μl to the ocular surface, concentration 0.03%; for IOP max mmHg / IOP max % decrease: at the time of maximum given in the cell; for IOP max % decrease: vehicle 0.1% polysorbate 80 and 10 mM TRIS base; for ocular hypotensive effect in dogs: topical ocular administration, result in words
Experimental: The compounds were prepared at the said concentrations in a vehicle comprising 0.1% polysorbate 80 and 10 mM TRIS base. Dogs were treated by administering 25 μl to the ocular surface, the contralateral eye received vehicle as a control. Intraocular pressure was measured by applanation pneumatonometry. […]

| SMILES | time (Hr) of IOP max % decrease [h] | time (Hr) of IOP max mmHg [h] | IOP max mmHg [mmHg] | IOP max % decrease [%] | ocular hypotensive effect in dogs |
| --- | --- | --- | --- | --- | --- |
| Cc1cc(CC[C@H](O)/C=C/[C@@H]2[C@@H](C/C=C\CCCC(=O)NS(C)(=O)=O)[C@@H](O)C[C@H]2O)sc1Br [Compound 9a, N-((Z)-7-{(1R,2R,3R,5S)-2-[(S)-(E)-5-(5-Bromo-4-methylthiophen-2-yl)-3-hydroxypent-1-enyl]-3,5-dihydroxycyclopentyl}hept-5-enoyl)methanesulfonamide] | 72 | 72 | −2.8 | −13.6 | pronounced ocular hypotensive effect |
| Cc1sc(CC[C@H](O)/C=C/[C@@H]2[C@@H](C/C=C\CCCC(=O)NS(C)(=O)=O)[C@@H](O)C[C@H]2O)cc1Cl [Compound 9b, N-((Z)-7-{(1R,2R,3R,5S)-2-[(S)-(E)-5-(4-Chloro-5-methylthiophen-2-yl)-3-hydroxypent-1-enyl]-3,5-dihydroxycyclopentyl}hept-5-enoyl)methanesulfonamide] | 96 | 96 | −4.9 | −26.5 | pronounced ocular hypotensive effect |
| CS(=O)(=O)NC(=O)CCC/C=C\C[C@@H]1[C@@H](/C=C/[C@@H](O)CCc2ccc(Cl)s2)[C@H](O)C[C@@H]1O [Compound 9c] | 102 | 102 | −4.2 | −23.8 | pronounced ocular hypotensive effect |
| CS(=O)(=O)NC(=O)CCC/C=C\C[C@@H]1[C@@H](/C=C/[C@@H](O)CCc2ccc(Br)s2)[C@H](O)C[C@@H]1O [Compound 9e] | 100 | 100 | −2.0 | −11.7 | pronounced ocular hypotensive effect |
| CCS(=O)(=O)NC(=O)CCC/C=C\C[C@@H]1[C@@H](/C=C/[C@@H](O)CCc2cc(C)c(Br)s2)[C@H](O)C[C@@H]1O [Compound 10a, Ethanesulfonic acid ((Z)-7-{(1R,2R,3R,5S)-2-[(S)-(E)-5-(5-bromo-4-methylthiophen-2-yl)-3-hydroxypent-1-enyl]-3,5-dihydroxycyclopentyl}hept-5-enoyl)amide] | 4 | 4 | −5.1 | −24.9 | pronounced ocular hypotensive effect |
| Cc1cc(CC[C@H](O)/C=C/[C@@H]2[C@@H](C/C=C\CCCC(=O)N(COC(=O)C(C)(C)C)S(C)(=O)=O)[C@@H](O)C[C@H]2O)sc1Br [Compound 18a] | 24 | 24 | −3.9 | −22.0 | pronounced ocular hypotensive effect |
| Cc1sc(CC[C@H](O)/C=C/[C@@H]2[C@@H](C/C=C\CCCC(=O)NS(=O)(=O)c3ccccc3)[C@@H](O)C[C@H]2O)cc1Cl [Compound 19b] | 74 | 74 | −2.6 | −13.0 | pronounced ocular hypotensive effect |

From patent US6706755B2, “Cyclopentane heptan(ene) acyl sulfonamide, 2-alkyl or 2-arylalkyl, or 2-heteroarylalkenyl derivatives as therapeutic agents” (Allergan, Inc., priority 2001, dated 2004)
